{"source": "patent US20260285876A1", "about": "“MACROCYCLIC COMPOUNDS AS USP1 INHIBITORS” (GUANGDONG NEWOPP BIOPHARMACEUTICALS CO., LTD., priority 2023, published 2026)"}
{"biological_target": "T1, USP1/UAF1 (Homo sapiens, UniProt O94782)", "T1 construct": "purchased R&D Systems", "T1 sequence (O94782 whole entry)": "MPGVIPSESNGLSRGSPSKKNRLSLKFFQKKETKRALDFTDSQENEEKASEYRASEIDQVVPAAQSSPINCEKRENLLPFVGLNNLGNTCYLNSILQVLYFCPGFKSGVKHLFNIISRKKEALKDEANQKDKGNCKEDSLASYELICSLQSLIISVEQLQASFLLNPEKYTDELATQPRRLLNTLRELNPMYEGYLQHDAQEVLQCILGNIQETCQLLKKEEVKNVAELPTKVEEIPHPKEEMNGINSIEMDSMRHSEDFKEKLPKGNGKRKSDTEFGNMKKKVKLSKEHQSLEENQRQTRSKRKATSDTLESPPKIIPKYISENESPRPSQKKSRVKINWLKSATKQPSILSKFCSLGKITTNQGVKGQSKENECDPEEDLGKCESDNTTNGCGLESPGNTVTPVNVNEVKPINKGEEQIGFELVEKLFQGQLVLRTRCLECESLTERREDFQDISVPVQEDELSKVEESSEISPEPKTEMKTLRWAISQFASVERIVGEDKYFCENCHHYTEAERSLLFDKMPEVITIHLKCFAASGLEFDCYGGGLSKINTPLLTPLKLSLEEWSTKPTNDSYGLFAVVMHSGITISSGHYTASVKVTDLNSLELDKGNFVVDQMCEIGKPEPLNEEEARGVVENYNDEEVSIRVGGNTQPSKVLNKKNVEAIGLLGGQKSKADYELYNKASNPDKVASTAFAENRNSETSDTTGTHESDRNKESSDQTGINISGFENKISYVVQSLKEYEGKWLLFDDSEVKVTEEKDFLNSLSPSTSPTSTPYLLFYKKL", "T1 sequence (Q8TAF3 whole entry partner)": "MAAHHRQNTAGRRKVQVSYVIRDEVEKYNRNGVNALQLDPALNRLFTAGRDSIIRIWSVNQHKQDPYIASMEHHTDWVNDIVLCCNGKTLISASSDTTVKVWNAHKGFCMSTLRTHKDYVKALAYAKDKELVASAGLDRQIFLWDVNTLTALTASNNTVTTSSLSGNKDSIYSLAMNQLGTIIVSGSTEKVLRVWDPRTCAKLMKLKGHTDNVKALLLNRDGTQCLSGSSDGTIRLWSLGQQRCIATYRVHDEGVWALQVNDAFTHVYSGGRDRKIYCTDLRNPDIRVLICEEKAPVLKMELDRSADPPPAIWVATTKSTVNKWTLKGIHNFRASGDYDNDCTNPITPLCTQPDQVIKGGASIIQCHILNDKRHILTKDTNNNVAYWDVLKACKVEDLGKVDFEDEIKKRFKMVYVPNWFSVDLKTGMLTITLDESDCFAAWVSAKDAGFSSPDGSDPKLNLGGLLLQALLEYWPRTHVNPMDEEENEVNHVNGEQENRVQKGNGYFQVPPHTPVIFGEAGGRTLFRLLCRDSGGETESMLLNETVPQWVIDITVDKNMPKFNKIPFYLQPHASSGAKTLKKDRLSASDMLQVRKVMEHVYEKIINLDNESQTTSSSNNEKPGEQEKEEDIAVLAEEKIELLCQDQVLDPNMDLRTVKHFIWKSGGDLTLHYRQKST", "assay": "Deubiquitination assay for USP1/UAF1 (ubiquitin-rhodamine 110 substrate)", "format": "biochemical", "settings": "0.5 nM USP1/UAF1, 150 nM ubiquitin-rhodamine, 50% inhibition compared to DMSO control", "procedure": "Deubiquitination assay for USP1/UAF1: compounds described here were tested for their ability to inhibit USP1 deubiquitinase activity in this assay using ubiquitin-rhodamine 110 as the substrate. The assay was conducted in the assay buffer (50 mM Tris-HCl, pH 7.8, 0.5 mM EDTA, 0.1 mg/ml Bovine Serum Albumin, 1 mM DTT, 0.01% Tween-20) in 384 well plates. 0.5 nM USP1/UAF1 (R&D Systems) was incubated with compounds in dose response format for 10 minutes at room temperature. Then the reaction was initiated by addition of 150 nM ubiquitin-rhodamine (R&D Systems). The fluorescence intensity was read after 45 minutes at Ex488/Em535 by CLARIOstar (BMG Labtech). IC50 response curves were plotted.", "units": {"IC50": "nM"}}
{"compound": "CC(C)n1cc(C(F)(F)F)nc1-c1ccc2c(c1)NCCCOc1ncnc(C3CC3)c1-c1ncc3ccn(c3n1)C2", "note": "[Example 35, 1^6-cyclopropyl-4^4-(1-isopropyl-4-(trifluoromethyl)-1H-imidazol-2-yl)-2^7H-9-oxa-5-aza-2(2,7)-pyrrolo[2,3-d]pyrimidina-1(5,4)-pyrimidina-4(1,2)-benzenacyclononaphane]", "IC50": "≤ 100"}
{"compound": "FC(F)(F)c1cc(C2CC2)n(-c2ccc3c(c2)NCCCOc2c(ncnc2C2CC2)-c2ncc4cnn(c4n2)C3)n1", "note": "[Example 36, 1-cyclopropyl-4-(5-cyclopropyl-3-(trifluoromethyl)-1H-pyrazol-1-yl)-21H-9-oxa-5-aza-2(6,1)-pyrazolo[3,4-d]pyrimidina-1(5,4)-pyrimidina-4(1,2)-benzenacyclononaphane]", "IC50": "≤ 100"}
{"compound": "CC(C)c1cc(C(F)(F)F)nn1-c1ccc2c(c1)NCCCOc1ncnc(C3CC3)c1-c1ncc3cnn(c3n1)C2", "note": "[Example 37, 16-cyclopropyl-44-(5-isopropyl-3-(trifluoromethyl)-1H-pyrazol-1-yl)-21H-9-oxa-5-aza-2(6,1)-pyrazolo[3,4-d]pyrimidina-1(5,4)-pyrimidina-4(1,2)-benzenacyclononaphane]", "IC50": "≤ 100"}
{"compound": "CC(C)n1cc(C(F)(F)F)nc1-c1ccc2cc1OCCCOc1ncnc(C3CC3)c1-c1ncc3cnn(c3n1)C2", "note": "[Example 38, 1^6-cyclopropyl-4^4-(1-isopropyl-4-(trifluoromethyl)-1H-imidazol-2-yl)-2^1H-5,9-dioxa-2(6,1)-pyrazolo[3,4-d]pyrimidina-1(5,4)-pyrimidina-4(1,3)-benzenacyclononaphane]", "IC50": "≤ 100"}
{"compound": "FC(F)(F)c1cn(C2CC2)c(-c2ccc3c(c2)/C=C/COc2ncnc(C4CC4)c2-c2ncc4ccc(n4n2)C3)n1", "note": "[Example 39, (2^1Z,5E)-1^6-cyclopropyl-4^4-(1-cyclopropyl-4-(trifluoromethyl)-1H-imidazol-2-yl)-8-oxa-2(2,7)-pyrrolo[2,1-f][1,2,4]triazina-1(5,4)-pyrimidina-4(1,2)-benzenacyclooctaphan-5-ene]", "IC50": "100 to 1000"}
{"compound": "CC(C)n1cc(C(F)(F)F)nc1-c1ccc2cc1NCCOc1ncnc(C3CC3)c1-c1ncc3cnn(c3n1)C2", "note": "[Example 40, 1^6-cyclopropyl-4^4-(1-isopropyl-4-(trifluoromethyl)-1H-imidazol-2-yl)-2H-8-oxa-5-aza-2(6,1)-pyrazolo[3,4-d]pyrimidina-1(5,4)-pyrimidina-4(1,3)-benzenacyclooctaphane]", "IC50": "≤ 100"}
{"compound": "FC(F)(F)c1cn(C2CC2)c(-c2ccc3c(c2)NCCCOc2ncnc(C4CC4)c2-c2ncc4ccc(n4n2)C3)n1", "note": "[Example 41, (Z)-1^6-cyclopropyl-4^4-(1-cyclopropyl-4-(trifluoromethyl)-1H-imidazol-2-yl)-9-oxa-5-aza-2(2,7)-pyrrolo[2,1-f][1,2,4]triazina-1(5,4)-pyrimidina-4(1,2)-benzenacyclononaphane]", "IC50": "≤ 100"}
{"compound": "FC(F)(F)c1cn(C2CC2)c(-c2ccc3c(c2)NCCOc2ncnc(C4CC4)c2-c2ncc4ccc(n4n2)C3)n1", "note": "[Example 42, (Z)-1^6-cyclopropyl-4^4-(1-cyclopropyl-4-(trifluoromethyl)-1H-imidazol-2-yl)-8-oxa-5-aza-2(2,7)-pyrrolo[2,1-f][1,2,4]triazina-1(5,4)-pyrimidina-4(1,2)-benzenacyclooctaphane]", "IC50": "≤ 100"}
{"compound": "CC(C)n1cc(C(F)(F)F)nc1-c1ccc2cc1C#CCCOc1ncnc(C3CC3)c1-c1ncc3cnn(c3n1)C2", "note": "[Example 43]", "IC50": "100 to 1000"}
{"compound": "CC(C)n1cc(C(F)(F)F)nc1-c1ccc2cc1/C=C/CCOc1ncnc(C3CC3)c1-c1ncc3cnn(c3n1)C2", "note": "[Example 44, (E)-1^6-cyclopropyl-4^4-(1-isopropyl-4-(trifluoromethyl)-1H-imidazol-2-yl)-2^1H-9-oxa-2(6,1)-pyrazolo[3,4-d]pyrimidina-1(5,4)-pyrimidina-4(1,3)-benzenacyclononaphan-5-ene]", "IC50": "≤ 100"}
{"compound": "CC(C)n1cc(C(F)(F)F)nc1-c1ccc2cc1CCCCOc1ncnc(C3CC3)c1-c1ncc3cnn(c3n1)C2", "note": "[Example 45, 1^6-cyclopropyl-4^4-(1-isopropyl-4-(trifluoromethyl)-1H-imidazol-2-yl)-2^1H-9-oxa-2(6,1)-pyrazolo[3,4-d]pyrimidina-1(5,4)-pyrimidina-4(1,3)-benzenacyclononaphane]", "IC50": "≤ 100"}
{"compound": "CC(C)n1cc(C(F)(F)F)nc1-c1ccc2cc1/C=C\\CCOc1ncnc(C3CC3)c1-c1ncc3cnn(c3n1)C2", "note": "[Example 46, (Z)-1^6-cyclopropyl-4^4-(1-isopropyl-4-(trifluoromethyl)-1H-imidazol-2-yl)-2^1H-9-oxa-2(6,1)-pyrazolo[3,4-d]pyrimidina-1(5,4)-pyrimidina-4(1,3)-benzenacyclononaphan-5-ene]", "IC50": "≤ 100"}
{"compound": "FC(F)(F)c1cn(C2CC2)c(-c2ccc3cc2CCCCOc2ncnc(C4CC4)c2-c2ncc4ccc(n4n2)C3)n1", "note": "[Example 47]", "IC50": "≤ 100"}
{"compound": "CC(C)n1cc(C(F)(F)F)nc1-c1ccc2cc1OCCCCOc1ncnc(C3CC3)c1-c1ncc3cnn(c3n1)C2", "note": "[Example 48, 1^6-cyclopropyl-4^4-(1-isopropyl-4-(trifluoromethyl)-1H-imidazol-2-yl)-2^1H-5,10-dioxa-2(6,1)-pyrazolo[3,4-d]pyrimidina-1(5,4)-pyrimidina-4(1,3)-benzenacyclodecaphane]", "IC50": "100 to 1000"}
{"compound": "CC(C)n1cc(C(F)(F)F)nc1-c1ccc2cc1OCCCOc1ncnc(C3CC3)c1-c1ncc3ccc(=O)n(c3n1)C2", "note": "[Example 49, 1^6-cyclopropyl-4^4-(1-isopropyl-4-(trifluoromethyl)-1H-imidazol-2-yl)-2^7,2^8-dihydro-5,9-dioxa-2(2,8)-pyrido[2,3-d]pyrimidina-1(5,4)-pyrimidina-4(1,3)-benzenacyclononaphan-27-one]", "IC50": "≤ 100"}
{"compound": "FC(F)(F)c1cn(C2CC2)c(-c2ccc3c(c2)/C=C/CCOc2ncnc(C4CC4)c2-c2ncc4ccc(n4n2)C3)n1", "note": "[Example 51, (2^1Z,5E)-1^6-cyclopropyl-4^4-(1-cyclopropyl-4-(trifluoromethyl)-1H-imidazol-2-yl)-8-oxa-2(2,7)-pyrrolo[2,1-f][1,2,4]triazina-1(5,4)-pyrimidina-4(1,2)-benzenacyclooctaphan-5-ene]", "IC50": "≤ 100"}
{"compound": "FC(F)(F)c1cn(C2CC2)c(-c2ccc3cc2OCCCOc2ncnc(C4CC4)c2-c2ncc4ccc(n4n2)C3)n1", "note": "[Example 52, (Z)-1^6-cyclopropyl-4^4-(1-cyclopropyl-4-(trifluoromethyl)-1H-imidazol-2-yl)-5,9-dioxa-2(2,7)-pyrrolo[2,1-f][1,2,4]triazina-1(5,4)-pyrimidina-4(1,3)-benzenacyclononaphane]", "IC50": "≤ 100"}
{"compound": "CC(C)n1cc(C(F)(F)F)nc1-c1ccc2c(c1)C#CCOc1ncnc(C3CC3)c1-c1ncc3cnn(c3n1)C2", "note": "[Example 54, (E)-16-cyclopropyl-44-(1-isopropyl-4-(trifluoromethyl)-1H-imidazol-2-yl)-21H-9-oxa-2(6,1)-pyrazolo[3,4-d]pyrimidina-1(5,4)-pyrimidina-4(1,2)-benzenacyclononaphan-5-ene4(1,2 benzenacyclononaphane]", "IC50": "≤ 100"}
{"compound": "CC(C)n1cc(C(F)(F)F)nc1-c1ccc2c(c1)/C=C/CCOc1ncnc(C3CC3)c1-c1ncc3cnn(c3n1)C2", "note": "[Example 55, (E)-16-cyclopropyl-44-(1-isopropyl-4-(trifluoromethyl)-1H-imidazol-2-yl)-21H-9-oxa-2(6,1)-pyrazolo[3,4-d]pyrimidina-1(5,4)-pyrimidina-4(1,2)-benzenacyclononaphan-5-ene4(1,2)-benzenacyclononaphane]", "IC50": "≤ 100"}
{"compound": "Cc1cc(C(F)(F)F)nn1-c1ccc2cc1OCCCOc1ncnc(C3CC3)c1-c1ncc3cnn(c3n1)C2", "note": "[Example 56, 1^6-cyclopropyl-4^4-(5-methyl-3-(trifluoromethyl)-1H-pyrazol-1-yl)-2^1H-5,9-dioxa-2(6,1)-pyrazolo[3,4-d]pyrimidina-1(5,4)-pyrimidina-4(1,3)-benzenacyclononaphane]", "IC50": "≤ 100"}
{"compound": "FC(F)(F)c1cn(C2CC2)c(-c2ccc3c(c2)/C=C/COc2ncnc(C4CC4)c2-c2ncc4cnn(c4n2)C3)n1", "note": "[Example 57]", "IC50": "≤ 100"}
